Test results reported in paper PMC7724679, “Identification of Repurposable Drugs and Adverse Drug Reactions for Various Courses of COVID-19 Based on Single-Cell RNA Sequencing Data” (ArXiv, 2020).

Key:
Assay type in all cases: cell-based
[1] = tested on: Vero E6 cells; experiment: Drug-induced cytotoxicity, CCK-8, Vero E6 cells; conditions: 24 h
Method: (§1) The drug-induced cytotoxicity of the test drugs (tyrphostin-AG-1478 and brefeldin-a) on Calu-3 and Vero E6 cells was determined by a cell counting kit 8 (CCK-8, APExBIO). Cells were cultured overnight in 96-well cell-culture Petri dishes at a density of 1 × 10^4 cells/well. A 10 mM stock of drug was serially diluted in 100% DMSO to obtain a 10-point dilution series. Plates were cultured with fresh drug-containing medium at 37°C for 24 h. The DMSO concentration remained constant under all conditions at 0.05%. The absorbance of each well was determined by using a 96-well multiscanner. After subtracting background absorption, the results were expressed as a percentage of viability relative to that of control cultures that received no drug. Drug concentrations that inhibited cell viability by 50% (IC50) were determined by using GraphPad Prism 8 software.

[2] = tested on: Influenza A virus (IAV, Puerto Rico/8/1934(H1N1)); experiment: Antiviral assay, IAV viral RNA in supernatant by RT-qPCR, Vero E6 cells; conditions: for IC50: read-out: IC50, antiviral activity against IAV
[3] = tested on: Calu-3 cells; experiment: Drug-induced cytotoxicity, CCK-8, Calu-3 cells; conditions: 24 h
Method: as §1

[4] = tested on: mRNA levels of MX1, ISG15, IFNB1, ACE2; experiment: Cellular mRNA levels by qPCR in IAV-infected Calu-3 cells; conditions: IAV-infected Calu-3 cells (MOI of 1), 0 to 10 μM
[5] = tested on: Influenza A virus (IAV, Puerto Rico/8/1934(H1N1)); experiment: Antiviral assay, IAV viral RNA in supernatant by RT-qPCR, Calu-3 cells; conditions: for IC50: read-out: IC50, antiviral activity against IAV

SMILES	cytotoxicity (cell viability) [1]	IAV viral RNA levels in cell culture supernatant [2]	IC50 ([2]; Influenza A virus, H1N1 / PR8, Vero C1008) [nM]	cytotoxicity (cell viability) [3]	ACE2 mRNA level [4]	IFNβ (IFNB1) mRNA level [4]	ISG15 mRNA level [4]	MX1 mRNA level [4]	IAV viral RNA levels in cell culture supernatant [5]	IC50 ([5]; Influenza A virus, H1N1 / PR8, Calu-3) [nM]	IC50 [2] [nM]	IC50 [5] [nM]
C[C@H]1CCC/C=C/[C@@H]2C[C@H](O)C[C@H]2[C@H](O)/C=C/C(=O)O1 [Brefeldin-a]	slightly reduced viability	reduced IAV viral RNA levels dose dependently	246	Neither compound caused significant cytotoxicity	significantly reduced	significantly reduced	significantly reduced	significantly reduced	reduced IAV viral RNA levels dose dependently	59		
COc1cc2ncnc(Nc3cccc(Cl)c3)c2cc1OC [Tyrphostin-AG-1478]	Neither compound caused significant cytotoxicity	reduced IAV viral RNA levels dose dependently		Neither compound caused significant cytotoxicity	increased	elevated	elevated	elevated	reduced IAV viral RNA levels dose dependently		53	43
